The record followed here is patent US8329913B2, “Carbazole derivative, solvate thereof, or pharmaceutically acceptable salt thereof” (Zeria Pharmaceutical Co., Ltd., priority 2004, dated 2012).

The assay has as its target T1, human PPARγ (Homo sapiens, UniProt P37231).
T1 construct: 1.6 kb of fragment of the prepared plasmid pGEMT-hPPARg2 including human PPARγ gene; expressed in transfected cells; host or cells: CV-1 cells, transient transfection with pCI-hPPARg2, pCI-hRXRa and the reporter pGL3-PPRE3-TK
T1 sequence (P37231 1-505): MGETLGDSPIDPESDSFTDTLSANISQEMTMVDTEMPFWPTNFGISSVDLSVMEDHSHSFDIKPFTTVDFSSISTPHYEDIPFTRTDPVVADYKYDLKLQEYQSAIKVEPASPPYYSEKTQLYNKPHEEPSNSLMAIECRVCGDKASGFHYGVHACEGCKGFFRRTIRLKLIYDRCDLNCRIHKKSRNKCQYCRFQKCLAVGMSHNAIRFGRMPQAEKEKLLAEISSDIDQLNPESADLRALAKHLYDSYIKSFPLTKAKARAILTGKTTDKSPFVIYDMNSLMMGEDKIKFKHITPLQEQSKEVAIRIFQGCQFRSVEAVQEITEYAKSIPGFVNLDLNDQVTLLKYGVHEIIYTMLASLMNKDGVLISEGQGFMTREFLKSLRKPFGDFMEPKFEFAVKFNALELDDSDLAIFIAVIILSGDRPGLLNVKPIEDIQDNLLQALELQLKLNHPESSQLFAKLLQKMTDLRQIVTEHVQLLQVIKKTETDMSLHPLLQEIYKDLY
T1 sequence (P19793 1-462 partner): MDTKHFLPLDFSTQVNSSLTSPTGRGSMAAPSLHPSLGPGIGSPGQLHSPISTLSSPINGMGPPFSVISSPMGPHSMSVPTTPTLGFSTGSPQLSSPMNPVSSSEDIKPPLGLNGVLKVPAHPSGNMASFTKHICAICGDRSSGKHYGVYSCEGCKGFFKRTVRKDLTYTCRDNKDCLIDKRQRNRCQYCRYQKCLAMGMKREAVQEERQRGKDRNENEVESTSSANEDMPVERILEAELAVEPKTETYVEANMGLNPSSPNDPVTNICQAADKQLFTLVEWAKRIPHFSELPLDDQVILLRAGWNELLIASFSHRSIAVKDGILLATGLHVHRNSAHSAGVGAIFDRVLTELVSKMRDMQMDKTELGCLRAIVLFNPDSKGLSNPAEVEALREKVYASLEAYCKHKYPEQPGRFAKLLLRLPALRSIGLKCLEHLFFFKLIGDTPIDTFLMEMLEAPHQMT
In words: Human PPARγ antagonist assay (luciferase reporter in transfected CV-1 cells). The assay is classed as cell-based. Particulars: CV-1 cells expressing human PPARγ and RXRα with reporter plasmid; pioglitazone 1 μM as stimulant; 24 hours; read-out: Human PPARγ antagonist activities, Inhibition IC50. As for the experimental part: CV-1 cells (96 well plate), where human PPARγ and RXRα has expressed in the transient transfection of reporter plasmid (see reference 5a) were washed once with PBS (100 μL/well), and then supplemented with 100 μL/well […], as well as pioglitazone (not limited to pioglitazone shown as an example, but may be any PPARγ agonist) at a final concentration of 1 μM as a stimulant were added, and incubated in a 5% CO2 incubator at 37° C. for 24 hours. After removing the medium, the CV-1 cells were washed once with PBS (100 μL/well), and supplemented with 60 μL/well of 1× Passive Lysis Buffer (manufactured by Promega Corporation). The CV-1 cells were incubated at room temperature for 30 minutes, stirred, and then by using Dual-Luciferase Reporter Assay System (manufactured by Promega Corporation), luciferase activities of firefly and renilla were measured using 1420 ARVO Multilabel Counter (manufactured by Wallac Oy). Also, the same experiments as that described above were respectively carried out for the cases where only the above-mentioned stimulants (100 nM, 1 μM, 10 μM) were used, where only the above-mentioned test compounds were used, or where neither was used (nonsupplemented), and luciferase activities of firefly and renilla were measured. Values corrected by dividing the firefly luciferase activities by the renilla luciferase activities were calculated as specific activities and used for evaluations.
Human PPARγ2 antagonist activities of the test compounds were evaluated by using a percentage (inhibition) where the specific activity in case only […] was added is regarded as 0% and the specific activity in case the test compound and the stimulant were not added is regarded as 100%. Moreover, the concentration of the test compound indicating the inhibition rate of 50% was calculated as the IC50 value. Also, human PPARγ2 agonist activities of the test compounds were evaluated by using a percentage (activity) where the specific activity when nonsupplemented is regarded as 0% and the specific activity in case only 10 μM stimulant was added is regarded as 100%, from the specific activity in case only the test compound is used.
CV-1 cells were cultured in DMEM medium (manufactured by Invitrogen Corporation) including 10% fetal bovine serum (manufactured by Dainippon Pharmaceutical Co., Ltd.) in 225T-Flask (manufactured by Corning Costar). The cells were detached by 0.5 g/L trypsin-0.2 g/L EDTA (ethylene diamine tetra-acetic acid) (manufactured by Invitrogen Corporation), and then suspended in the DMEM medium including 10% fetal bovine serum to a cell concentration of 2×10^5 cells/mL. Thereafter, the cells were seeded into 96 well plate at 2×10^4 cells/0.1 mL/well, incubated in the 5% CO2 incubator at 37° C. overnight, and then the plasmids prepared by the above-mentioned reference 1a, reference 3a, and reference 4a were transfected into cells by using a lipofectamine reagent (manufactured by Invitrogen Corporation) according to the attached manual.
Namely, after CV-1 cells were cultured overnight, the cells were washed with PBS (100 μL/well). Thereafter the cells were incubated for 5 hours at 37° C./5% CO2 in the MEM medium (manufactured by Invitrogen Corporation) including 430 ng/mL of human PPARγ expression plasmid (pCI-hPPARg2) prepared by the reference 1a, 430 ng/mL of human RXRα expression plasmid (pCI-hRXRa) prepared by the reference 3a, and 140 ng/mL of the reporter plasmid (pGL3-PPRE3-TK) prepared by the reference 4a, 10 ng/mL of phRL-TK vector (manufactured by Promega Corporation) and 2 μL/mL of lipofectamine.
Background: In a reporter assay the amount or activity of a reporter protein is the signal.

One may read the IC50 as the concentration that inhibits the measured activity by half. As to `COc1cc(Cn2c3ccccc3c3c(OC(C)(C)C(=O)O)cccc32)ccc1OCc1nc(-c2ccncc2)oc1C` [Example 9, 2-{9-[3-methoxy-4-((5-methyl-2-(pyridine-4-yl)-oxazole-4-yl)methoxy)-benzyl]-9H-carbazole-4-yloxy}-2-methyl-propionic acid], the IC50 amounted to 5140 nM. As for `COc1cc(Cn2c3ccccc3c3c(OCC(C)(C)C(=O)O)cccc32)ccc1OCc1nc(-c2ccco2)oc1C` [Example 23, 3-{9-[4-((2-(furan-2-yl)-5-methyl-oxazole-4-yl)methoxy)-3-methoxy-benzyl]-9H-carbazole-4-yloxy}-2,2-dimethyl-propionic acid], the IC50 came out at 93 nM. For `COc1cc(Cn2c3ccccc3c3c(OC(C)(C)C(=O)O)cccc32)ccc1OCc1nc(-c2ccco2)oc1C` [Example 7, 2-{9-[4-((2-(furan-2-yl)-5-methyl-oxazole-4-yl)methoxy)-3-methoxy-benzyl]-9H-carbazole-4-yloxy-}2-methyl-propionic acid], the IC50 was determined as 1910 nM. With `COc1cc(Cn2c3ccccc3c3c(O[C@H](C)C(=O)[O-])cccc32)ccc1OCc1nc(-c2ccccc2)oc1C.[Na+]` [Example 43, sodium (R)-2-{9-[3-methoxy-4-((5-methyl-2-phenyl-oxazole-4-yl)methoxy)-benzyl]-9H-carbazole-4-yloxy}propionate] the figure was 1120 nM; with `CCC(Oc1cccc2c1c1ccccc1n2Cc1ccc(OCc2nc(-c3ccccc3)oc2C)c(OC)c1)C(=O)O` (racemic) [Example 5, (±)-2-{9-[3-methoxy-4-((5-methyl-2-phenyl-oxazole-4-yl)methoxy)-benzyl]-9H-carbazole-4-yloxy}butyric acid], 353 nM. On to `COc1cc(Cn2c3ccccc3c3c(OCC(C)(C)C(=O)O)cccc32)ccc1OCc1nc(-c2ccncc2)oc1C` [Example 25, 3-{9-[3-methoxy-4-((5-methyl-2-pyridine-4-yl-oxazole-4-yl)methoxy)-benzyl]-9H-carbazole-4-yloxy}-2,2-dimethyl-propionic acid], for which the IC50 was 430 nM.

For `COc1cc(Cn2c3ccccc3c3c(OC(C)(C)C(=O)O)cccc32)ccc1OCc1nc(-c2ccccc2)sc1C` [Example 15, 2-{9-[3-methoxy-4-((5-methyl-2-phenyl-thiazole-4-yl)methoxy)-benzyl]-9H-carbazole-4-yloxy}-2-methyl-propionic acid], the half-maximal inhibitory concentration (IC50) was found to be 5980 nM.

Regarding `COc1cc(Cn2c3ccccc3c3c(OC(C)C(=O)[O-])cccc32)ccc1OCc1nc(-c2ccccc2)oc1C.[Na+]` (racemic) [Example 30], the 50% inhibitory concentration (IC50) came to 983 nM. For `Cc1oc(-c2ccccc2)nc1COc1ccc(Cn2c3ccccc3c3c(OC(C)(C)C(=O)O)cccc32)cc1` [Example 13, 2-methyl-2-{9-[4-((5-methyl-2-phenyl-oxazole-4-yl)methoxy)-benzyl]-9H-carbazole-4-yloxy}propionic acid], the IC50 amounted to 5870 nM. For `COc1cc(Cn2c3ccccc3c3c(OC(C)(C)C(=O)[O-])cccc32)ccc1OCc1nc(-c2cccs2)oc1C.[Na+]` [Example 32], the IC50 worked out at 422 nM.

With `COc1cc(Cn2c3ccccc3c3c(OCC(C)(C)C(=O)O)cccc32)ccc1OCc1nc(-c2ccccc2)oc1C` [Example 22, 3-{9-[3-methoxy-4-((5-methyl-2-phenyl-oxazole-4-yl)methoxy)-benzyl]-9H-carbazole-4-yloxy}-2,2-dimethyl-propionic acid], the IC50 was determined as 122 nM.

`COc1cc(Cn2c3ccccc3c3c(OCCC(C)C(=O)[O-])cccc32)ccc1OCc1nc(-c2ccccc2)oc1C.[Na+]` (racemic) [Example 37]: the IC50 was 354 nM. For the compound `CC[C@H](Oc1cccc2c1c1ccccc1n2Cc1ccc(OCc2nc(-c3ccccc3)oc2C)c(OC)c1)C(=O)[O-].[Na+]` [Example 38, sodium (S)-(+)-2-{9-[3-methoxy-4-((5-methyl-2-phenyl-oxazole-4-yl)methoxy)-benzyl]-9H-carbazole-4-yloxy}butyrate], the IC50 was determined as 330 nM.
